According to ChEMBL document CHEMBL3988442, “University of Dundee, Small-Polar-MMV Screening Library” (2021):

Experiments:
[1] = target: T1, Ubiquitin-activating enzyme e1, putative (Leishmania donovani (strain BPK282A1), UniProt E9BSI1); assay: Leishmania donovani Ubiquitin Activating Enzyme (LdE1); type: functional
T1 sequence (E9BSI1 whole entry): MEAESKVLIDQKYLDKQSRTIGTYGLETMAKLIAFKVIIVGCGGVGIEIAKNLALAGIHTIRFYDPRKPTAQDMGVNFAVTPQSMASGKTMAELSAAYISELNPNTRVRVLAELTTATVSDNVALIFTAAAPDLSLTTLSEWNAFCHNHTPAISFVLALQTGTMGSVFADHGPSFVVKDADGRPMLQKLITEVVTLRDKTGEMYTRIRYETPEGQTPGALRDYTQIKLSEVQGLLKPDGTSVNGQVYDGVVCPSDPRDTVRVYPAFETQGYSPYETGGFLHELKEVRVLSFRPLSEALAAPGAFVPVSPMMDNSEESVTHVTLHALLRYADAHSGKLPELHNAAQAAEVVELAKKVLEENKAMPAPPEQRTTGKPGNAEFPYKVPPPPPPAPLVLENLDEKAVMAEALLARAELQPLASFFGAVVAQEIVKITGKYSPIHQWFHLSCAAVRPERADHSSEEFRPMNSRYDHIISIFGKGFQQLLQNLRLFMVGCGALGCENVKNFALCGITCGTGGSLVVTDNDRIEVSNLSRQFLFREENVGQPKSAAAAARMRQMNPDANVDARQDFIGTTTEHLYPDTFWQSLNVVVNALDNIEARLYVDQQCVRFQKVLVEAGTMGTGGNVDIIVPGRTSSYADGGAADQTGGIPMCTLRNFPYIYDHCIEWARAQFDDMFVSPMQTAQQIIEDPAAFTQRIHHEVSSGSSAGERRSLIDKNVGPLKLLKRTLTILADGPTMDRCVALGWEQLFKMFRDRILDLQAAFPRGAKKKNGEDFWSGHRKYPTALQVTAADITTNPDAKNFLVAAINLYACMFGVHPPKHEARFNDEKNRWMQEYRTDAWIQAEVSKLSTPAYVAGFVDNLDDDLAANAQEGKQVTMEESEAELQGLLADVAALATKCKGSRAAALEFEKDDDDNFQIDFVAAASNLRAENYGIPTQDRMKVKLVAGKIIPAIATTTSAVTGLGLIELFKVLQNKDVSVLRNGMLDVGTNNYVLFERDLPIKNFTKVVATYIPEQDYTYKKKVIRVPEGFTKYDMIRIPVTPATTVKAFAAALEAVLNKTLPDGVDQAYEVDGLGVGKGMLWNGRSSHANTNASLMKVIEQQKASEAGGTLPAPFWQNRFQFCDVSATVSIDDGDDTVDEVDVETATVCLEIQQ

Plasmodium falciparum [2] = assay: Plasmodium falciparum sporozoite viability assay; type: functional, organism-based; conditions: for IC50: Plasmodium falciparum
Plasmodium falciparum [3] = assay: Calibr Malaria Delayed Death Assay SOP; type: functional, organism-based; conditions: for IC50: Plasmodium falciparum
[4] = microbe, parasite or virus in culture; conditions: Mycobacterium tuberculosis, 96 h, read-out: pIC50 (converted)
[5] = microbe, parasite or virus in culture; conditions: Mycobacterium tuberculosis, 72 h, read-out: pIC50 (converted)
Schistosoma mansoni = assay: High throughput screening of compounds against Schistosoma mansoni motility; type: functional; set-up: dose or concentration left out as unconfirmed

In the case of `CC(C)c1nc2n(n1)CC(NCc1nnnn1C1CC1)CC2` (stereo unspecified), the IC50 [1] is reported as > 100 µM.
In the case of `CCn1nc2c(cc1=O)CN(Cc1coc(-c3ccccc3)n1)CC2`, the IC50 [1] is reported as > 100 µM.
With `O=C(c1ncccn1)N1C[C@@H]2COC[C@]2(COCc2cccnc2)C1` the IC50 [1] was > 100 µM.
With `COCCNc1ccc(CNC(=O)Nc2cn[nH]c2)cc1` the IC50 [1] was > 100 µM.
For `CCC(O)CN1CCN(C(=O)c2ccc(N(C)C)nn2)CC1` (stereo unspecified), the IC50 [1] was > 100 µM.
In the case of `Cc1ccccc1C(=O)N1C[C@@H]2COC[C@]2(COCc2cccnc2)C1`, the IC50 [1] is reported as > 100 µM.
For `Cc1nc(C(=O)N2C[C@@H]3COC[C@]3(COCc3cccnc3)C2)cs1`, the IC50 [1] was > 100 µM.
In the case of `Cn1nc2c(cc1=O)CN(Cc1coc(-c3ccccc3)n1)CC2`, the IC50 [1] is reported as > 100 µM.
In the case of `O=C(CCNC(=O)C1CCCC1)NCc1ccccc1Cn1ccnc1`, the IC50 [1] is reported as > 100 µM.
For `Cc1nc(C)c(C(=O)NCCNc2ncccc2C(F)(F)F)s1`, the IC50 [1] was > 100 µM.
With `CC(Cn1cccn1)NCc1nc(-c2ccco2)no1` (stereo unspecified) the IC50 [1] was > 100 µM.
`Cc1cn2c(n1)C(CNCC1=Cc3ccccc3OC1)CCC2` (stereo unspecified) showed a pIC50 (Plasmodium falciparum [2]) of 7.385, an IC50 (Plasmodium falciparum [2]) of 0.0623 µM and a pIC50 (Plasmodium falciparum [3]) of 5.983. For the same compound, the IC50 (Plasmodium falciparum [3]) was 0.903 µM.
With `Cc1nc(C(C)C)sc1C(=O)NCCNc1ncccc1C#N` the IC50 [1] was > 100 µM.
In the case of `Cc1ccc(C(=O)N2C[C@@H]3COC[C@]3(COCc3cccnc3)C2)cn1`, the IC50 [1] is reported as > 100 µM.
For `c1csc(-c2noc(CNCCn3cccn3)n2)c1`, the IC50 [1] was > 100 µM.
With `CC[C@@H]1N(CC2CCC2)CCC[C@]12CCC(=O)N2Cc1ccncc1` the IC50 [1] was > 100 µM.
In the case of `O=C(Cc1ccsc1)N1C[C@@H]2COC[C@]2(COCc2cccnc2)C1`, the IC50 [1] is reported as > 100 µM.
In the case of `CC(C)c1nc2n(n1)CC(NCc1nnc(-c3ccco3)o1)CC2` (stereo unspecified), the IC50 [1] is reported as > 100 µM.
For `Cc1nc(C)n(CC2CCCCN2Cc2nc3ccccc3o2)n1` (stereo unspecified), the IC50 [1] was > 100 µM.
In the case of `CCC1CCCCN1Cc1ncc(C(C)(C)C)o1` (stereo unspecified), the IC50 [1] is reported as > 100 µM.
With `FC(F)(F)Oc1ccc(-c2noc([C@@H]3Cc4nc[nH]c4CN3)n2)cc1` the pIC50 (Plasmodium falciparum [2]) was 6.357, the IC50 (Plasmodium falciparum [2]) was 0.221 µM and the IC50 [4] was > 50.1 µM. For the same compound, the IC50 [5] was > 50.1 µM.
With `CC(C)N1CCC(Cc2cnc(-c3cccc(C(=O)O)c3)cn2)C1` (stereo unspecified) the IC50 [1] was > 100 µM.
In the case of `CC[C@H]1NCCC[C@]12CCC(=O)N2Cc1ccncc1`, the IC50 [1] is reported as > 100 µM.
With `CC(C)(C)n1cc(C2=CCN(CCc3ccccc3)CC2)cn1` the pIC50 (Plasmodium falciparum [2]) was 5.875, the IC50 (Plasmodium falciparum [2]) was 1.53 µM and the pIC50 (Plasmodium falciparum [3]) was 6.257. For the same compound, the IC50 (Plasmodium falciparum [3]) was 0.571 µM and the “Percent Effect” value (Schistosoma mansoni) was 26.35%.
For `CSC(C)C(=O)N1CCCN(Cc2nccn2C)CC1` (stereo unspecified), the IC50 [1] was > 100 µM.
In the case of `CC(C)c1nc2n(n1)CC(NCc1nc(C3CC3)no1)CC2` (stereo unspecified), the IC50 [1] is reported as > 100 µM.
With `Cc1nc(CN2CCCN(C(=O)C(C)OCC3CC3)CC2)cs1` (stereo unspecified) the IC50 [1] was > 100 µM.
In the case of `COc1ccc(-c2noc(CNC(C)Cn3cccn3)n2)c(OC)c1` (stereo unspecified), the IC50 [1] is reported as > 100 µM.
In the case of `CCc1nnc(CN2CCCCC2Cn2nc(C)nc2C)o1` (stereo unspecified), the IC50 [1] is reported as > 100 µM.
With `CC(C)C(NC(=O)NCCNc1cnccn1)c1cccs1` (stereo unspecified) the IC50 [1] was > 100 µM.
With `CC(Cn1cccn1)NCc1nc(-c2cccs2)no1` (stereo unspecified) the IC50 [1] was > 100 µM.
